Like-named read-outs stand apart in the source and are kept apart here.
Assays:
[1] = rats, intraperitoneal injection; cited from earlier work
[2] = mice, intraperitoneal injection; cited from earlier work
porcine brain tubulin = test: Isothermal titration calorimetry, free (unpolymerized) tubulin at 4 °C; assay type: binding; conditions: association constant, ITC
Experimental: (§1) ITC experiments were performed using a Microcal VP-ITC (Malvern) instrument. For polymerized porcine brain tubulin the calorimeter was set at 37 °C. For depolymerized porcine brain tubulin the calorimeter was set at 4 °C. Tubulin concentration was kept below 3 mg mL^−1 to ensure that minimal microtubule formation before any polymerization assays were performed in preparation for ITC experiments. Reverse titrations were used in all ITC experiments due to the low solubility of RPC2 in aqueous solutions. A typical ITC experiment involved fourteen 20 μL injections of tubulin (∼30 μM heterodimers, or 2 mg mL^−1) into a 1.45 mL cell of ligand solution. The ITC thermograms were corrected for titrate and titrant dilution effects by performing the appropriate blank experiments and correcting the observed heats by subtracting the heats of dilution. Corrected ITC titrations were fit with a nonlinear regression algorithm using CHASM, an ITC data analysis program developed in the Lewis laboratory to determine the thermodynamic parameters, including the association constant (K) and changes in free energy (ΔG), enthalpy (ΔH), and entropy (−TΔS).
Isothermal titration calorimetry (ITC) was used to measure the binding thermodynamics of RPC2 with tubulin and MTs. […]

MTs = system: MTs; set-up: method as in PMID 15057285, PMID 29523799; conditions: competitive binding titrations; cited from earlier work
[3] = target: T1, preformed microtubules (polymerized porcine brain tubulin) (Sus scrofa, UniProt P02550+P02554); test: Isothermal titration calorimetry, preformed microtubules at 37 °C; assay type: binding; conditions: ITC
T1 construct: For depolymerized porcine brain tubulin the calorimeter was set at 4 °C; purchased Cytoskeleton Inc., (Denver. CO); host or cells: porcine brain (tissue-purified)
T1 sequence (P02550 whole entry): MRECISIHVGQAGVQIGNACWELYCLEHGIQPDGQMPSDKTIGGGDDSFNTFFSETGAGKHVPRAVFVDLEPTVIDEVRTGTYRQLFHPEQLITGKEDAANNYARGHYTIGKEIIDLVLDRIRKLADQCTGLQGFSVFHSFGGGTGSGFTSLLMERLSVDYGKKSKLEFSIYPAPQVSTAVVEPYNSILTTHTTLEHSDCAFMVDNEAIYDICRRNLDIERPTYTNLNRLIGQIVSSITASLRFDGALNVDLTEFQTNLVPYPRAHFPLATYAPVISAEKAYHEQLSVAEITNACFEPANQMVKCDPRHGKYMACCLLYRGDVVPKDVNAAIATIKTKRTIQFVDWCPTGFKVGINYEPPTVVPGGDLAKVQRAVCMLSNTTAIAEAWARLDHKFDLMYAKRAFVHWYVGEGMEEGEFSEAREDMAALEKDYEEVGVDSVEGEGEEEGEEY
T1 sequence (P02554 whole entry): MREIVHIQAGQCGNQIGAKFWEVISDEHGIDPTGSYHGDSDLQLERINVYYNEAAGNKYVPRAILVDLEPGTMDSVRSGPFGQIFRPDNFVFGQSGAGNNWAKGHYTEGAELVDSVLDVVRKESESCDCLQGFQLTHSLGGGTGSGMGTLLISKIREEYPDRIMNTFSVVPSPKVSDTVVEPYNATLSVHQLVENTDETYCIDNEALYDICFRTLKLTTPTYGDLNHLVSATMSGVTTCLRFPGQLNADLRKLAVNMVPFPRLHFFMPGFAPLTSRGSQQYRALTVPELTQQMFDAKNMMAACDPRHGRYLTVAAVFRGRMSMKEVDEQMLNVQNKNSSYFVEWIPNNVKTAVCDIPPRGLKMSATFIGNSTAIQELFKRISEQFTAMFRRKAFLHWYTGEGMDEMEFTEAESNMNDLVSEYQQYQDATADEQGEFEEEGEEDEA
Experimental: as §1
Isothermal titration calorimetry (ITC) was used to measure the binding thermodynamics of RPC2 with tubulin and MTs. Reverse titrations (protein introduced into solutions with a fixed ligand concentration) were done as the poor solubility of RPC2 limited its concentration range. […] Experiments were either performed starting at 4 °C or 37 °C to obtain a population of tubulin in the free, unpolymerized state (4 °C) or polymerized state as MTs (37 °C), as these two structures present a different collection of binding sites to the ligand.

HUVEC = conditions: cited from earlier work
mouse fibroblast cells [4] = system: mouse fibroblast cells; set-up: method as in PMID 6103535; conditions: PTX 0.25 μM, cited from earlier work
[5] = system: free tubulin in H358 cells; test: Western blot of free tubulin in cytosol of H358 cells; assay type: cell-based, human; conditions: PTX 0.1 μM or RPC2 1.7 μM, 12 h
Experimental: […] The confluent 60 mm dishes of cells were washed 3 times with 37 °C PBS, then lysed in microtubule stabilization buffer (Tris–HCl pH 6.8, 20 mM, NaCl 140 mM, MgCl2 1 mM, NP40 0.5%, EGTA 2 mM, 10 μM of Taxol) and protease inhibitors (100× Protease Inhibitor Cocktail (PIC) and 100× phenylmethane sulfonyl fluoride (PMSF)). Then, the cells were scraped, mixed and quickly transfer to microtubes. These samples were then spun at 10 000 rpm for 20 minutes, the supernatants containing free tubulin were collected and a bicinchoninic acid (BCA) protein assay was performed to check the protein quantity. Equal amounts of protein sample were prepared in Laemmli sample buffer and were boiled for 5 min at 95 °C. Proteins were resolved on a 12% polyacrylamide gel. The proteins were transferred to a nitrocellulose membrane for 1.5 h at 100 V. The nitrocellulose membrane was stained for 1 min with Ponceau Red to verify the efficiency of the transfer. Then, the membrane was blocked in 5% skim milk for 1 h at room temperature and incubated with primary alpha tubulin monoclonal antibody in 5% BSA overnight at 4 °C. The membrane was washed 3 times with TBST buffer before being probed with secondary antibodies conjugated to HRP, then the membrane was incubated for 1 h at room temperature before it was washed 3 times again with TBST buffer. […]

mouse fibroblast cells [6] = system: mouse fibroblast cells; set-up: method as in PMID 20059301; conditions: mouse fibroblast cell line; cited from earlier work
H358 [7] = conditions: cited from earlier work
MCF10 = conditions: cited from earlier work
[8] = system: MCF7 and MCF10a cells expressing GFP-EB3; test: Spinning disk confocal imaging of GFP-EB3 comets in live cells; assay type: cell-based, human; conditions: IC50 dose
Experimental: MCF7 cells were cultured in phenol-red DMEM media (HyClone™, GE healthcare) supplemented with 10% FBS and penicillin/streptomycin at 37 °C in 5% CO2. MCF10A cells were cultured in low-calcium phenol-red DMEM/F12 (HyClone™, GE healthcare) supplemented with final concentration of 5% horse serum, 20 ng mL^−1 EGF, […] hydrocortisone, 100 ng mL^−1 Cholera toxin, 10 μg mL^−1 insulin, and 1% pen-strep. For live imaging, 500 000 cells per mL of both MCF7 and MCF10A cells were transfected with the cDNA (EGFP-EB3), and then cultured on 10 μg mL^−1 fibronectin coated 35 mm glass-bottom dishes (Cellvis, cat#: D35-20-1.5-N). Transfection of EGFP-EB3 was performed using a Lonza Nucleofector Device with Ingenio electroporation kit (Cat# MIR 50112, Mirus). Cells were treated with RPC2 18–24 hours post-transfection to allow time for cDNA expression. To minimize photobleaching, phenol-free DMEM was supplemented with 10% FBS and 25 mM HEPES, pH = 7.2 replaced the original media and was administered before RPC2 treatment. Time-lapse imaging was obtained before, 30 min, 1 h, 2 h, and 3 h after RPC2 treatment for both MCF7 and MCF10A. Images were obtained on a Zeiss Axiovert (Jena, Germany) microscope with a Zeiss alpha Plan-Fluar 100×, 1.45 NA oil objective and a spinning disk confocal scan head (Yokogawa CSU-X1, Tokyo, Japan). […]

MCF7 = test: Cytotoxicity IC50 against MCF7 cells; assay type: cell-based; conditions: Homo sapiens
[9] = system: microtubules formed from porcine brain tubulin; test: Electron microscopy of polymerized tubulin; assay type: biochemical; conditions: 10 μM
Source text: Aliquots of polymerized tubulin were placed on 300-mesh carbon-coated, Formvar-treated copper grids and immediately stained with 5–10 successively applied drops of 1% (w/v) uranyl acetate. Excess stain was wicked from the grids with torn filter paper. The grids were examined in a Hitachi H-9500 High-resolution Transmission Electron Microscope.

H358 [10] = test: Cytotoxicity IC50 against H358 cells; assay type: cell-based; conditions: Homo sapiens, NCI-H358
MCF10 and MCF7 cells = system: MCF10 and MCF7 cells; set-up: method as in PMID 28605571; conditions: cited from earlier work

In the case of [106Ru+2].[O-][Cl+3]([O-])([O-])[O-].[O-][Cl+3]([O-])([O-])[O-].c1cnc2c(c1)ccc1cccnc12.c1cnc2c(c1)ccc1cccnc12.c1cnc2c(c1)ccc1cccnc12 [[^106Ru(phen)3][ClO4]2], the “time to excretion of the intact cation in the urine” value [1] is given as “about 12 h” and the “time to excretion of the intact cation in the urine” value [2] is given as “about 12 h”.

For CC(=O)O[C@@]12CO[C@@H]1C[C@H](O)[C@@]1(C)C(=O)[C@H](O)C3=C(C)[C@@H](OC(=O)[C@H](O)[C@@H](NC(=O)OC(C)(C)C)c4ccccc4)C[C@@](O)([C@@H](OC(=O)c4ccccc4)[C@H]21)C3(C)C [DTX, docetaxel], the K (porcine brain tubulin) is listed as 8.1e+06 M⁻¹, the “association constant with MTs” value (MTs) is listed as 3.09e+07 M⁻¹ and the ΔG ([3]; MT, 37 °C) is listed as -9.2 ± 0.9 kcal/mol. It also gave a ΔH ([3]; MT, 37 °C) of -33.4 ± 6.5 kcal/mol, a Kd ([3]; preformed MTs, read-out: associative binding constant K to preformed microtubules (converted)) of 182 nM and a K ([3]; association constant, MT, 37 °C) of 5.5e+06 M⁻¹.

In the case of CC(=O)O[C@H]1C(=O)[C@@]2(C)[C@H]([C@H](OC(=O)c3ccccc3)[C@]3(O)C[C@H](OC(=O)[C@H](O)[C@@H](NC(=O)c4ccccc4)c4ccccc4)C(C)=C1C3(C)C)[C@]1(OC(C)=O)CO[C@@H]1C[C@@H]2O [PTX, paclitaxel], the IC50 (HUVEC) is listed as 0.82 nM, the “population in G2/M” value (mouse fibroblast cells [4]; after 9 h) is listed as roughly 50% and the “population in G2/M” value (mouse fibroblast cells [4]; by 27 h) is listed as roughly 100%. For the same molecule, the “association constant with MTs” value (MTs) was 1.07e+07 M⁻¹, the “Amount of free tubulin in the cytosol (western blot)” value [5] was “substantially reduce the amount of free tubulin” and the IC50 (mouse fibroblast cells [6]) was 860 nM. For the same molecule, the IC50 (H358 [7]) was 100 nM, the IC50 (MCF10) was 200 nM and the “time point at which changes in MT comet motion were apparent” value [8] was 30 min.

For COC(=O)Nc1nc2ccc(C(=O)c3cccs3)cc2[nH]1 [NCZ, nocodazole], the IC50 (MCF7) is given as 3200 nM, the IC50 (HUVEC) is given as 200 nM and the “Appearance of MTs in TEM images” value [9] is given as “only small MT fragments or tubulin dimers are apparent”. For the same molecule, the IC50 (MCF10) was 480 nM and the IC50 (H358 [10]) was 1000 nM.

In the case of [(DIP)2Ru(tatpp)]^2+, the “selectivity index (SI = IC50 MCF10/IC50 MCF7)” value (MCF10 and MCF7 cells) is listed as 71.

In the case of [(DIP)2Ru(tatpp)Ru(DIP)2]^2+, the “selectivity index (SI = IC50 MCF10/IC50 MCF7)” value (MCF10 and MCF7 cells) is listed as 11.

Source: PMC8133002, “Disruption of microtubule function in cultured human cells by a cytotoxic ruthenium(II) polypyridyl complex” (Chemical Science, 2019)
